Converted amounts (≈) assume the structure as drawn.
Experiments:
Format in all cases: functional
[1] = tested on: Pseudomonas aeruginosa; assay: Antibacterial activity against Pseudomonas aeruginosa ATCC 10145 after 24 hrs by serial dilution method; conditions: ATCC 10145, 24 h
[2] = tested on: Escherichia coli; assay: Antibacterial activity against Escherichia coli ATCC 23556 after 24 hrs by serial dilution method; conditions: ATCC 23556, 24 h
[3] = tested on: Bacillus subtilis; assay: Antibacterial activity against Bacillus subtilis ATCC 6633 after 24 hrs by serial dilution method; conditions: ATCC 6633, 24 h
[4] = tested on: Staphylococcus aureus; assay: Antibacterial activity against Staphylococcus aureus ATCC 25923 after 24 hrs by serial dilution method; conditions: ATCC 25923, 24 h
[5] = tested on: Nakaseomyces glabratus; assay: Antifungal activity against Candida glabrata after 48 hrs by serial dilution method
[6] = tested on: Candida albicans; assay: Antifungal activity against Candida albicans after 48 hrs by serial dilution method
[7] = tested on: Pichia kudriavzevii; assay: Antifungal activity against Candida krusei ATCC 6258 after 48 hrs by serial dilution method; conditions: ATCC 6258, 48 h

SMILES | MIC [1] | MIC [2] | MIC [3] | MIC [4] | MIC [5] | MIC [6] | MIC [7]
CC1(C)S[C@@H]2[C@H](NC(=O)[C@H](N)c3ccccc3)C(=O)N2[C@H]1C(=O)O [AMPICILLIN] | > 200 µg/mL | 12.5 µg/mL (≈ 35.8 µM) | 1.56 µg/mL (≈ 4.46 µM) | 1.56 µg/mL (≈ 4.46 µM) |  |  | 
Cc1ccc(C)c(C(=O)Nc2ccc3oc(Cc4ccc(Cl)cc4)nc3c2)c1 | 50 µg/mL (≈ 128 µM) | 12.5 µg/mL (≈ 32 µM) | 12.5 µg/mL (≈ 32 µM) | 50 µg/mL (≈ 128 µM) | 25 µg/mL (≈ 64 µM) | 6.25 µg/mL (≈ 16 µM) | 12.5 µg/mL (≈ 32 µM)
Cc1ccc(CC(=O)Nc2ccc3oc(Cc4ccccc4)nc3c2)cc1 | 25 µg/mL (≈ 70.1 µM) | 25 µg/mL (≈ 70.1 µM) | 25 µg/mL (≈ 70.1 µM) | 25 µg/mL (≈ 70.1 µM) | 12.5 µg/mL (≈ 35.1 µM) | 25 µg/mL (≈ 70.1 µM) | 6.25 µg/mL (≈ 17.5 µM)
CC(C)(C)c1ccc(C(=O)Nc2ccc3oc(Cc4ccccc4)nc3c2)cc1 | 25 µg/mL (≈ 65 µM) | 25 µg/mL (≈ 65 µM) | 50 µg/mL (≈ 130 µM) | 200 µg/mL (≈ 520 µM) | 25 µg/mL (≈ 65 µM) | 50 µg/mL (≈ 130 µM) | 25 µg/mL (≈ 65 µM)
CN(C)[C@@H]1C(O)=C(C(N)=O)C(=O)[C@@]2(O)C(O)=C3C(=O)c4c(O)cccc4[C@@](C)(O)[C@H]3C[C@@H]12 [TETRACYCLINE] | 50 µg/mL (≈ 113 µM) | 3.12 µg/mL (≈ 7.02 µM) | 1.56 µg/mL (≈ 3.51 µM) | 1.56 µg/mL (≈ 3.51 µM) |  |  | 
Cc1ccc(C(=O)Nc2ccc3oc(Cc4ccc(Cl)cc4)nc3c2)cc1C | 50 µg/mL (≈ 128 µM) | 50 µg/mL (≈ 128 µM) | 25 µg/mL (≈ 64 µM) | 12.5 µg/mL (≈ 32 µM) | 50 µg/mL (≈ 128 µM) | 100 µg/mL (≈ 256 µM) | 12.5 µg/mL (≈ 32 µM)
Clc1ccc(COC(Cn2ccnc2)c2ccc(Cl)cc2Cl)c(Cl)c1 (centres undefined) [MICONAZOLE] |  |  |  |  | 3.12 µg/mL (≈ 7.5 µM) | 3.12 µg/mL (≈ 7.5 µM) | 1.56 µg/mL (≈ 3.75 µM)
O=C(Nc1ccc2oc(Cc3ccc(Cl)cc3)nc2c1)c1ccc(Cl)c([N+](=O)[O-])c1 | 50 µg/mL (≈ 113 µM) | 50 µg/mL (≈ 113 µM) | 50 µg/mL (≈ 113 µM) | 50 µg/mL (≈ 113 µM) | 25 µg/mL (≈ 56.5 µM) | 25 µg/mL (≈ 56.5 µM) | 25 µg/mL (≈ 56.5 µM)
O=C(Nc1ccc2oc(Cc3ccc(Cl)cc3)nc2c1)c1ccc(Br)cc1 | 50 µg/mL (≈ 113 µM) | 50 µg/mL (≈ 113 µM) | 50 µg/mL (≈ 113 µM) | 50 µg/mL (≈ 113 µM) | 100 µg/mL (≈ 226 µM) | 50 µg/mL (≈ 113 µM) | 100 µg/mL (≈ 226 µM)
O=C(O)c1cn(C2CC2)c2cc(N3CCNCC3)c(F)cc2c1=O [CIPROFLOXACIN] | 0.78 µg/mL (≈ 2.35 µM) |  | 1.56 µg/mL (≈ 4.71 µM) | 3.12 µg/mL (≈ 9.42 µM) |  |  | 
O=C(Cc1ccccc1)Nc1ccc2oc(Cc3ccc(Cl)cc3)nc2c1 | 25 µg/mL (≈ 66.3 µM) | 50 µg/mL (≈ 133 µM) | 25 µg/mL (≈ 66.3 µM) | 50 µg/mL (≈ 133 µM) | 25 µg/mL (≈ 66.3 µM) | 25 µg/mL (≈ 66.3 µM) | 25 µg/mL (≈ 66.3 µM)
O=C(CSc1ccccc1)Nc1ccc2oc(Cc3ccc(Cl)cc3)nc2c1 | 100 µg/mL (≈ 245 µM) | 100 µg/mL (≈ 245 µM) | 100 µg/mL (≈ 245 µM) | 100 µg/mL (≈ 245 µM) | 50 µg/mL (≈ 122 µM) | 50 µg/mL (≈ 122 µM) | 25 µg/mL (≈ 61.1 µM)
O=C(Cc1ccc(Cl)cc1)Nc1ccc2oc(Cc3ccc(Cl)cc3)nc2c1 | 25 µg/mL (≈ 60.8 µM) | 50 µg/mL (≈ 122 µM) | 25 µg/mL (≈ 60.8 µM) | 50 µg/mL (≈ 122 µM) | 12.5 µg/mL (≈ 30.4 µM) | 50 µg/mL (≈ 122 µM) | 6.25 µg/mL (≈ 15.2 µM)
O=C(Cc1ccc([N+](=O)[O-])cc1)Nc1ccc2oc(Cc3ccccc3)nc2c1 | 25 µg/mL (≈ 64.5 µM) | 50 µg/mL (≈ 129 µM) | 50 µg/mL (≈ 129 µM) | 50 µg/mL (≈ 129 µM) | 25 µg/mL (≈ 64.5 µM) | 25 µg/mL (≈ 64.5 µM) | 25 µg/mL (≈ 64.5 µM)
Clc1ccccc1C(c1ccccc1)(c1ccccc1)n1ccnc1 [CLOTRIMAZOLE] |  |  |  |  |  | 6.25 µg/mL (≈ 18.1 µM) | 
CC1(C)S[C@@H]2[C@H](NC(=O)[C@H](N)c3ccc(O)cc3)C(=O)N2[C@H]1C(=O)O [AMOXICILLIN] | > 200 µg/mL | 3.12 µg/mL (≈ 8.54 µM) | 1.56 µg/mL (≈ 4.27 µM) | 1.56 µg/mL (≈ 4.27 µM) |  |  | 
O=C(Cc1ccc(Br)cc1)Nc1ccc2oc(Cc3ccc(Cl)cc3)nc2c1 | 50 µg/mL (≈ 110 µM) | 50 µg/mL (≈ 110 µM) | 25 µg/mL (≈ 54.9 µM) | 50 µg/mL (≈ 110 µM) | 50 µg/mL (≈ 110 µM) | 12.5 µg/mL (≈ 27.4 µM) | 25 µg/mL (≈ 54.9 µM)
O=C(Cc1ccccc1)Nc1ccc2oc(Cc3ccccc3)nc2c1 | 50 µg/mL (≈ 146 µM) | 25 µg/mL (≈ 73 µM) | 25 µg/mL (≈ 73 µM) | 25 µg/mL (≈ 73 µM) | 25 µg/mL (≈ 73 µM) | 12.5 µg/mL (≈ 36.5 µM) | 12.5 µg/mL (≈ 36.5 µM)
O=C(Cc1ccc(F)cc1)Nc1ccc2oc(Cc3ccc(Cl)cc3)nc2c1 | 25 µg/mL (≈ 63.3 µM) | 50 µg/mL (≈ 127 µM) | 100 µg/mL (≈ 253 µM) | 12.5 µg/mL (≈ 31.7 µM) | 50 µg/mL (≈ 127 µM) | 50 µg/mL (≈ 127 µM) | 25 µg/mL (≈ 63.3 µM)
O=C(Nc1ccc2oc(Cc3ccc(Cl)cc3)nc2c1)c1ccccc1 | 100 µg/mL (≈ 276 µM) | 100 µg/mL (≈ 276 µM) | 50 µg/mL (≈ 138 µM) | 200 µg/mL (≈ 551 µM) | 25 µg/mL (≈ 68.9 µM) | 50 µg/mL (≈ 138 µM) | 25 µg/mL (≈ 68.9 µM)
Cc1ccc(C(=O)Nc2ccc3oc(Cc4ccccc4)nc3c2)s1 | 25 µg/mL (≈ 71.8 µM) | 25 µg/mL (≈ 71.8 µM) | 25 µg/mL (≈ 71.8 µM) | 25 µg/mL (≈ 71.8 µM) | 6.25 µg/mL (≈ 17.9 µM) | 12.5 µg/mL (≈ 35.9 µM) | 6.25 µg/mL (≈ 17.9 µM)
